From patent publication US20100255598A1, “Medication Adherence Monitoring System” (priority 2007, published 2010)
Like-named read-outs stand apart in the source and are kept apart here.

Legend:
[1] = test system: alcohol dehydrogenase (ADH); test: Breath ketone:alcohol ratio after 2° alcohol taggant; format: in vivo; details: breath concentrations
Experimental: The presence (and persistence) of their corresponding ketones (EDIMs) in exhaled breath represents definitive proof of ingestion of a medication containing 2° alcohols (or a 2° alcohol-based ester, carbonate ester, ketal, etc.) as taggants. In general due to increased steric hindrance, 2° alcohols are not as good substrates for ADH relative to 1° alcohols. Likewise, the enzymatic pathways to degrade alcohol-derived ketones appear less efficient than those for alcohol-derived aldehydes.

alcohol dehydrogenase = details: cited from earlier work
CYP1A2 = target: T1, CYP1A2 (Homo sapiens, UniProt P05177); details: given orally to humans; cited from earlier work
T1 sequence (P05177 1-516): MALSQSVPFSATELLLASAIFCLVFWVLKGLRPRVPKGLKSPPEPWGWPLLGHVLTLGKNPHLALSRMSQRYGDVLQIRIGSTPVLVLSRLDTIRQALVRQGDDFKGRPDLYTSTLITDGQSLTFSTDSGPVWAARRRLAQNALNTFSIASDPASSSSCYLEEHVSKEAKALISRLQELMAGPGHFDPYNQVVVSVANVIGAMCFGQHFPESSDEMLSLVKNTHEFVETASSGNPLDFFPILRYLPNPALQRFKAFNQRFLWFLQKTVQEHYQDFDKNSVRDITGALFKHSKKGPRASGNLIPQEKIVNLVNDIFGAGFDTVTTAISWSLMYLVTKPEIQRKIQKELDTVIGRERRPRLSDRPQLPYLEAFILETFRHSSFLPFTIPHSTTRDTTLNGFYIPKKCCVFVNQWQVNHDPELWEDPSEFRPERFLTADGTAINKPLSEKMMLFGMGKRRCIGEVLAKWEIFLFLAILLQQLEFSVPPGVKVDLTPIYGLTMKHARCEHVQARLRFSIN

CYP 2D6 = CYP 2D6 (Homo sapiens, UniProt P10635); details: via CYP 2D6; cited from earlier work
CYP 2D6, sequence (P10635 whole entry): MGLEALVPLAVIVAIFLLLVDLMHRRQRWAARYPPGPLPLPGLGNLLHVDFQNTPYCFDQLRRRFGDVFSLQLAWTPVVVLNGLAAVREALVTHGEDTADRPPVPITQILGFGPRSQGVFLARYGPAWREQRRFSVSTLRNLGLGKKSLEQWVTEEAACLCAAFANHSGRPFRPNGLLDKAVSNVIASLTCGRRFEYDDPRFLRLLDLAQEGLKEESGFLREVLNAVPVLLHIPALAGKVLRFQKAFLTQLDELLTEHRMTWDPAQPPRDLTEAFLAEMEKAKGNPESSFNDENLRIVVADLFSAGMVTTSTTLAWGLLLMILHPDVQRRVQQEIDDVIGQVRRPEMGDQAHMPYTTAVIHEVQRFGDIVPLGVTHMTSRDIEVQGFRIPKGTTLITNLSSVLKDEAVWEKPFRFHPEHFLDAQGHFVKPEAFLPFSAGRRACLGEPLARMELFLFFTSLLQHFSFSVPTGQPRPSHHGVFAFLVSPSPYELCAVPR

[2] = at 37° C.; cited from earlier work

Structure (SMILES): CCC(C)=O [2-butanone]
- ketone:alcohol ratio 2-butanone/2-butanol [1]: > 1

Structure (SMILES): CO [Methanol, methanol]
- half life in the blood (alcohol dehydrogenase; in the absence of alcohol): 1.8 to 3.0 h
- half life in the blood (alcohol dehydrogenase; in the presence of alcohol): 8 to 24 h

Structure (SMILES): Cn1c(=O)c2c(ncn2C)n(C)c1=O [caffeine]
- fraction converted to theophylline (CYP1A2): Approximately 80%

Structure (SMILES): COc1ccc2c3c1O[C@H]1[C@@H](O)C=C[C@H]4[C@@H](C2)N(C)CC[C@@]341 [codeine]
- fraction converted to morphine in vivo (CYP 2D6): about 10%

Structure (SMILES): CC(C)c1cccc(C(C)C)c1O [propofol]
- vapor pressure [2]: ~0.2 mmHg
